Experimental data taken from PubChem BioAssay AID2060488 (Molecular Pharmacology Branch, DTP, NCI, 2025).

System: 966289-007-R4-J1-PDC complex spheroid viability
Assay: Anticancer human tumor 966289-007-R4-J1-PDC patient-derived pancreatic adenocarcinoma cell line growth inhibition [GQUAD]
Conditions: for IC50: curve of first compound; for viability, T/C: stronger effect = lower value
Procedure, shortened: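 Multi-cell-type spheroids of tumor cells with HUVEC and mesenchymal stem cells, treated with drug combinations. Concentrations descend in half-log steps from near clinical Cmax, or from 10 microM where Cmax is unknown; viability read-out.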

[1] = second compound 0.0316 µM, first compound 0.0316 µM
[2] = second compound 0.0316 µM, first compound 0.316 µM
[3] = second compound 0.1 µM, first compound 0.0316 µM
[4] = second compound 0.1 µM, first compound 0.316 µM
[5] = second compound 0.316 µM, first compound 0.0316 µM
[6] = second compound 0.316 µM, first compound 0.316 µM
[7] = second compound 1 µM, first compound 0.0316 µM
[8] = second compound 1 µM, first compound 0.316 µM
[9] = second compound 3.16 µM, first compound 0.0316 µM
[10] = second compound 3.16 µM, first compound 0.316 µM
[11] = second compound 10 µM, first compound 0.0316 µM
[12] = second compound 10 µM, first compound 0.316 µM
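Also: spheroids exposed to the agents for seven days before readout.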
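For viability, T/C in this document: percent viability relative to DMSO vehicle control wells taken as 100%.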

For C=CC(=O)N1CCN(c2nc(=O)n(-c3c(C)ccnc3C(C)C)c3nc(-c4c(O)cccc4F)c(F)cc23)C(C)C1 (centres undefined) + Cc1cnc(CNC(=O)c2c(=O)c3ccc(N4CCCN(C)CC4)nc3n3c2sc2ccccc23)cn1, the IC50 (second compound 0.0316 µM) was > 10000 nM, the IC50 (second compound 0.1 µM) was < 31.6 nM and the IC50 (second compound 0.316 µM) was < 31.6 nM. The IC50 (second compound 1 µM) was < 31.6 nM, the IC50 (second compound 3.16 µM) was < 31.6 nM and the IC50 (second compound 10 µM) was < 31.6 nM. It also gave a viability, T/C [1] of 109%, a viability, T/C (second compound 0.0316 µM, first compound 0.1 µM) of 102% and a viability, T/C [2] of 112%. It also gave a viability, T/C (second compound 0.0316 µM, first compound 1 µM) of 98%, a viability, T/C (second compound 0.0316 µM, first compound 3.16 µM) of 103% and a viability, T/C (second compound 0.0316 µM, first compound 10 µM) of 88.2%. The viability, T/C [3] was 31.1%, the viability, T/C (second compound 0.1 µM, first compound 0.1 µM) was 37.4% and the viability, T/C [4] was 37.1%. For the same compound, the viability, T/C (second compound 0.1 µM, first compound 1 µM) was 31.9%, the viability, T/C (second compound 0.1 µM, first compound 3.16 µM) was 37% and the viability, T/C (second compound 0.1 µM, first compound 10 µM) was 25.3%. For the same compound, the viability, T/C [5] was 11.3%, the viability, T/C (second compound 0.316 µM, first compound 0.1 µM) was 12.7% and the viability, T/C [6] was 11.5%. The viability, T/C (second compound 0.316 µM, first compound 1 µM) was 12.2%, the viability, T/C (second compound 0.316 µM, first compound 3.16 µM) was 13.4% and the viability, T/C (second compound 0.316 µM, first compound 10 µM) was 10.3%. For the same compound, the viability, T/C [7] was 7.08%, the viability, T/C (second compound 1 µM, first compound 0.1 µM) was 5.8% and the viability, T/C [8] was 5.81%. The viability, T/C (second compound 1 µM, first compound 1 µM) was 6.58%, the viability, T/C (second compound 1 µM, first compound 3.16 µM) was 9.48% and the viability, T/C (second compound 1 µM, first compound 10 µM) was 9.07%. For the same compound, the viability, T/C [9] was 4.85%, the viability, T/C (second compound 3.16 µM, first compound 0.1 µM) was 4.57% and the viability, T/C [10] was 5.54%. The viability, T/C (second compound 3.16 µM, first compound 1 µM) was 5.93%, the viability, T/C (second compound 3.16 µM, first compound 3.16 µM) was 7.14% and the viability, T/C (second compound 3.16 µM, first compound 10 µM) was 8.52%. For the same compound, the viability, T/C [11] was 0.11%, the viability, T/C (second compound 10 µM, first compound 0.1 µM) was 0.14% and the viability, T/C [12] was 0.14%. It also gave a viability, T/C (second compound 10 µM, first compound 1 µM) of 0.16%, a viability, T/C (second compound 10 µM, first compound 3.16 µM) of 2.33% and a viability, T/C (second compound 10 µM, first compound 10 µM) of 0.13%.

With CCc1c2c(nc3ccc(O)cc13)-c1cc3c(c(=O)n1C2)COC(=O)[C@]3(O)CC + Cc1cnc(CNC(=O)c2c(=O)c3ccc(N4CCCN(C)CC4)nc3n3c2sc2ccccc23)cn1 the IC50 (second compound 0.0316 µM) was < 0.999 nM, the IC50 (second compound 0.1 µM) was < 0.999 nM and the IC50 (second compound 0.316 µM) was < 0.999 nM. The IC50 (second compound 1 µM) was < 0.999 nM, the IC50 (second compound 3.16 µM) was < 0.999 nM and the IC50 (second compound 10 µM) was < 0.999 nM. The viability, T/C (second compound 0.0316 µM, first compound 0.000999 µM) was 5.02%, the viability, T/C (second compound 0.0316 µM, first compound 0.00316 µM) was 0.7% and the viability, T/C (second compound 0.0316 µM, first compound 0.00999 µM) was 0.49%. It also gave a viability, T/C [1] of 0.4%, a viability, T/C (second compound 0.0316 µM, first compound 0.0999 µM) of 0.35% and a viability, T/C [2] of 0.36%. For the same compound, the viability, T/C (second compound 0.1 µM, first compound 0.000999 µM) was 2.67%, the viability, T/C (second compound 0.1 µM, first compound 0.00316 µM) was 0.71% and the viability, T/C (second compound 0.1 µM, first compound 0.00999 µM) was 1.06%. For the same compound, the viability, T/C [3] was 0.42%, the viability, T/C (second compound 0.1 µM, first compound 0.0999 µM) was 0.35% and the viability, T/C [4] was 0.46%. The viability, T/C (second compound 0.316 µM, first compound 0.000999 µM) was 2.26%, the viability, T/C (second compound 0.316 µM, first compound 0.00316 µM) was 0.87% and the viability, T/C (second compound 0.316 µM, first compound 0.00999 µM) was 0.52%. The viability, T/C [5] was 0.5%, the viability, T/C (second compound 0.316 µM, first compound 0.0999 µM) was 0.79% and the viability, T/C [6] was 0.41%. The viability, T/C (second compound 1 µM, first compound 0.000999 µM) was 1.23%, the viability, T/C (second compound 1 µM, first compound 0.00316 µM) was 0.79% and the viability, T/C (second compound 1 µM, first compound 0.00999 µM) was 0.82%. It also gave a viability, T/C [7] of 0.08%, a viability, T/C (second compound 1 µM, first compound 0.0999 µM) of 0.63% and a viability, T/C [8] of 0.12%. The viability, T/C (second compound 3.16 µM, first compound 0.000999 µM) was 0.43%, the viability, T/C (second compound 3.16 µM, first compound 0.00316 µM) was 0.09% and the viability, T/C (second compound 3.16 µM, first compound 0.00999 µM) was 0.06%. It also gave a viability, T/C [9] of 0.05%, a viability, T/C (second compound 3.16 µM, first compound 0.0999 µM) of 0.12% and a viability, T/C [10] of 0.09%. For the same compound, the viability, T/C (second compound 10 µM, first compound 0.000999 µM) was 0.03%, the viability, T/C (second compound 10 µM, first compound 0.00316 µM) was 0.07% and the viability, T/C (second compound 10 µM, first compound 0.00999 µM) was 0.08%. The viability, T/C [11] was 0.07%, the viability, T/C (second compound 10 µM, first compound 0.0999 µM) was 1.27% and the viability, T/C [12] was 0.1%.
